One molecule from US20030059852A1, “Modulation of integrin-mediated signal transduction” (COR Therapeutics, Inc., priority 1995, published 2003) can be followed below.

Molecules are shown by their SMILES.

The test system of one experiment is platelets. The experiment is described as follows: Platelet aggregation induced by agonists. The experiment is classed as cell-based, human. Here is the method: (§1) Blood from healthy volunteers was collected into ⅙^th volume of 85 mM sodium citrate, 111 mM dextrose and 71 mM citric acid supplemented with 50 ng/ml PGI2 and 0.6 U/ml apyrase. After centrifugation of the blood at 160× g for 20 minutes the platelet rich plasma was removed and subjected to further centrifugation at 730× g for 10 minutes to sediment the platelets. Platelets were then resuspended in 13 mM trisodium citrate, 120 mM NaCl and 30 mM dextrose pH 7.0 and washed x 2 with this buffer. The platelets were then resuspended in 12 mM NaHCO3, 138 mM NaCl, 5.5 mM dextrose, 2.9 mM KCl, 10 mM Hepes, 1 mM CaCl2, 0.3 U/ml apyrase and allowed to recover for 1 hour at 37° C. Resting platelets were activated by the addition of 1 nM thrombin with stirring until aggregates were visible (1-3 minutes).
Additional experiments have been performed using a 2-D gel electrophoresis protocol and have yielded further information on the tyrosine phosphorylation of GPIIIa (FIG. 3). GPIIIa tyrosine phosphorylation can be observed in platelets induced to aggregate using agonists other than thrombin. […] In all cases platelet aggregation appears to be a prerequisite for GPIIIa tyrosine phosphorylation.

The next experiment concerns GP IIIa (β3). The experiment is described as follows: In vivo tyrosine phosphorylation of GPIIIa, 2-D gel electrophoresis and anti-phosphotyrosine immunoblotting. The experiment is classed as cell-based, human. Here is the method:
as §1, with “Resting platelets were activated by the addition of 1 nM thrombin with stirring until aggregates were visible (1-3 minutes).” left out
330 μl of 3× non-reducing sample buffer containing 1 mM sodium vanadate was added to 1 ml of control or thrombin-aggregated platelets. […] This membrane was then immunoblotted with anti-phosphotyrosine antibodies and the relative amount of phosphorylated GPIIIa was determined by densitometry for both control and thrombin-aggregated samples. […]
However, a three to six fold enhancement of phosphorylation of GPIIIa was observed when platelets were lysed in a high concentration of SDS and the proteins immediately separated by 2-D gel electrophoresis prior to transfer to a nitrocellulose membrane, and immunoblotting to detect phosphorylated proteins with phosphotyrosine antibodies and with a GPIIIa antibody to quantitate GPIIIa. […]
In general terms: Immunoblotting shows a protein as a band on a membrane.

As for `Nc1ncnc2c1ncn2[C@@H]1O[C@H](COP(=O)(O)OP(=O)(O)O)[C@@H](O)[C@H]1O` [ADP], the platelet aggregation entry in the experiment on platelets is listed as “does not induce platelet aggregation”. For the same molecule, the Aggregation result with platelets (platelets stimulated with the indicated agonist) is on record as “no”. Also, in the experiment with GP IIIa (β3) (2-D gel electrophoresis protocol), the GPIIIa tyrosine phosphorylation result is “no increase”. Also, in the experiment with GP IIIa (β3) (platelets stimulated with the indicated agonist, 2-D gel, anti-phosphotyrosine immunoblotting), the “β3 Phosphorylation” value is listed as “no”.
